Drawing on patent US11001569B2, “6-membered heteroaromatic substituted cyanoindoline derivatives as NIK inhibitors” (Janssen Pharmaceutica NV, priority 2016, dated 2021), this text covers IC50 for 18 compounds.

Assay [1] deals with recombinant human NF-kappaB-inducing Kinase (NIK/MAP3K14) (Homo sapiens, UniProt Q99558). Nature of the assay: Inhibition of auto-phosphorylation of recombinant human NIK/MAP3K14 activity (AlphaScreen). It counts as biochemical. The settings on record: 25 microM ATP, averaged over all measurements on all batches. The protocol: Pharmacological Part Biological assay A Inhibition of auto-phosphorylation of recombinant human NF-kappaB-inducing Kinase (NIK/MAP3K14) Activity (AlphaScreen®)
NIK/MAP3K14 auto-phosphorylation activity was measured using the AlphaScreen® (αscreen) format (Perkin Elmer). All compounds tested were dissolved in dimethyl sulfoxide (DMSO) and further dilutions were made in assay buffer. Final DMSO concentration was 1% (v/v) in assays. Assay buffer was 50 mM Tris pH 7.5 containing 1 mM EGTA (ethylene glycol tetraacetic acid), 1 mM DTT (dithiothreitol), 0.1 mM Na3VO4, 5 mM MgCl2, 0.01% Tween® 20. Assays were carried out in 384 well Alphaplates (Perkin Elmer). […] Incubations were initiated by addition of GST-tagged NIK/MAP3K14 enzyme, carried out for 1 h at 25° C. and terminated by addition of stop buffer containing anti-phospho-IKK Ser176/180 antibody. Protein A Acceptor and Glutathione-Donor beads were added before reading using an EnVision® Multilabel Plate Reader (Perkin Elmer). Signal obtained in the wells containing blank samples was subtracted from all other wells and IC50's were determined by fitting a sigmoidal curve to % inhibition of control versus Log10 compound concentration.
In general terms: In Alpha technology, singlet oxygen from a donor bead excites a nearby acceptor bead.

Assay [2] has as its system KMS12-BM (NIK WT) multiple myeloma cells. Nature of the assay: Antiproliferative activity on KMS12-BM multiple myeloma cells (CellTiter-Glo). The class given is cell-based, human. The conditions noted are these: 96 hr treatment, averaged values, read-out: KMS-12 Proliferation inhibition (IC50 (nM)). The protocol:
(§1) Determination of Antiproliferative Activity on JJN-3 (NIK Translocated) and KMS12-BM (NIK WT) Multiple Myeloma Cells
(§2) All compounds tested were dissolved in DMSO and further dilutions were made in culture medium. Final DMSO concentration was 0.3% (v/v) in cell proliferation assays. Viability was assessed using CellTiter-Glo cell viability assay kit (Promega). […] Cells were routinely kept as suspension cells at 37° C. in a humidified 5% CO2 atmosphere. Cells were passaged at a seeding density of 0.2×10^6/ml twice a week. Cells were seeded in black tissue culture treated 96-well plates (Perkin Elmer). Densities used for plating ranged from 15000 (JJN3) to 20000 (KMS12BM) cells per well in a total volume of 135 μl medium. Drugs and/or solvents were added (15 μl) to a final volume of 150 μl. Following 96 hr of treatment, plates were removed from the incubator and allowed to equilibrate to room temperature for approx 10 min. 75 μl CellTiter-Glo reagent was added to each well that was then covered (Perkin Elmer Topseal) and shaken on plate shaker for 10 min. Luminescence was measured on a HTS Topcount (Perkin Elmer). […] For initial screening purposes, compounds were tested using a 9 point dilution curve (serial 1:3 dilutions). For each experiment, controls (containing no drug) and a blank incubation (containing cells read at the time of compound addition) were run in parallel. The blank value was subtracted from all control and sample values. For each sample, the mean value for cell growth (in relative light units) was expressed as a percentage of the mean value for cell growth of the control.
For orientation: Cellular ATP, detected with luciferase, serves as a proxy for viable cell number.

Assay [3] concerns JJN-3 (NIK translocated) multiple myeloma cells. Put plainly: Antiproliferative activity on JJN-3 multiple myeloma cells (CellTiter-Glo). The class given is cell-based, human. The conditions noted are these: JJN-3 (NIK translocated) cells, 96 hr treatment, averaged values, read-out: JJN-3 Proliferation inhibition (IC50 (nM)). How it is done: as §1, §2

Like-named read-outs stand apart in the source and are kept apart here.

Sequence of recombinant human NF-kappaB-inducing Kinase (NIK/MAP3K14) (Q99558 whole entry): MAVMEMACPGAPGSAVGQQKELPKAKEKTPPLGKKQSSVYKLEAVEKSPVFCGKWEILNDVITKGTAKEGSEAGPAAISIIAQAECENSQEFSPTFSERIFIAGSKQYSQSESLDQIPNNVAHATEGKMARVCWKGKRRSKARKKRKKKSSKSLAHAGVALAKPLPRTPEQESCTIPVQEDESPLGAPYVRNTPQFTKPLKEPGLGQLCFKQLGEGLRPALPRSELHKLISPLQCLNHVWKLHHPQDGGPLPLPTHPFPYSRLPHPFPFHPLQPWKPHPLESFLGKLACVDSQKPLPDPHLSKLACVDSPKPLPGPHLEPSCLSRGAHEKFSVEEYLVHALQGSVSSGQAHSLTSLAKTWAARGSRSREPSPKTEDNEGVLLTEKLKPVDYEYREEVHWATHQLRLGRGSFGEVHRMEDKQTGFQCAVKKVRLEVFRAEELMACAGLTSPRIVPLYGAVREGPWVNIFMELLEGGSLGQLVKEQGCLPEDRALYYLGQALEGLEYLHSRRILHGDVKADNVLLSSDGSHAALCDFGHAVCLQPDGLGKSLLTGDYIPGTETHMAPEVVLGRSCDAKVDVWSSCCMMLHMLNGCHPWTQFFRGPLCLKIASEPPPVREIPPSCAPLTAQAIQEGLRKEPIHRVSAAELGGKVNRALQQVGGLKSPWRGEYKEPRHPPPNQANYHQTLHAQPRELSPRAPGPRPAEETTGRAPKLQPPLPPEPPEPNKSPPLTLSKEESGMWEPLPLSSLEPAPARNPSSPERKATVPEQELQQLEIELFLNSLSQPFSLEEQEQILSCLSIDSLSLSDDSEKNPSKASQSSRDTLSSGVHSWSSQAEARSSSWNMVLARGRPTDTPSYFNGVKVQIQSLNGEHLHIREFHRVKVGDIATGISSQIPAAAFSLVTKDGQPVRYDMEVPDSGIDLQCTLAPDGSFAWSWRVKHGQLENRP

For `Cc1cnc(OCC2CCCN2C2CC2)c(Nc2nccc(-c3cc(C#N)c4c(c3)[C@@](C)(CO)CN4)n2)c1` (mixture of isomers) [Compound 175], the IC50 in assay [1] was 19.5 nM.
As for `Cc1ncc(Nc2nccc(-c3cc(C#N)c4c(c3)[C@@](C)(CO)CN4)n2)c(OCC2CCCO2)n1` (single isomer, unassigned) [Compound 138], the IC50 in assay [2] was over 10000 nM; in assay [1] it was 29.5 nM; in assay [3] it was 1510 nM.
Regarding `COCCn1cc(Cl)cc(Nc2nccc(-c3cc(C#N)c4c(c3)[C@@](C)(CO)CN4)n2)c1=O` [Compound 14i], the IC50 is over 10000 nM in assay [2] (Homo sapiens, KMS-12-BM, 96 h); 1.4 nM in assay [1]; 24 nM in assay [3] (Homo sapiens, JJN-3, 96 h).
On to `CN1CCC(Oc2ncc(Cl)cc2Nc2nccc(-c3cc(C#N)c4c(c3)C(C)(CO)CN4)n2)CC1` (centres unmarked) [Compound 15], for which the IC50 was over 10000 nM in assay [2] (Homo sapiens, KMS-12-BM, 96 h); 2.9 nM in assay [1]; 24 nM in assay [3] (Homo sapiens, JJN-3, 96 h).
`C[C@]1(CO)CNc2c(C#N)cc(-c3ccnc(Nc4cc(Cl)cnc4OC4CCOCC4)n3)cc21` [Compound 22]: the IC50 is over 10000 nM in assay [2] (Homo sapiens, KMS-12-BM, 96 h); 10.2 nM in assay [1]; 417 nM in assay [3] (Homo sapiens, JJN-3, 96 h).
The corresponding values for `CC1(CO)CNc2c(C#N)cc(-c3ccnc(Nc4ccc(N5CCNCC5)cn4)n3)cc21` (centres unmarked) [Compound 32] are 437 nM, 6.5 nM and 89 nM.
For the compound `COCCOc1ncccc1Nc1nccc(-c2cc(C#N)c3c(c2)[C@@](C)(CO)CN3)n1` [Compound 33], the IC50 in assay [2] (Homo sapiens, KMS-12-BM, 96 h) is over 10000 nM; in assay [1] it was 4.2 nM; in assay [3] (Homo sapiens, JJN-3, 96 h), 298 nM.
For `COc1nc(C(F)(F)F)ccc1Nc1nccc(-c2cc(C#N)c3c(c2)[C@@](C)(CO)CN3)n1` [Compound 54], in that order: over 10000 nM, 39.8 nM and 4070 nM.
Consider `COc1nnc(Cl)cc1Nc1nccc(-c2cc(C#N)c3c(c2)C(C)(CO)CN3)n1` (centres unmarked) [Compound 124], for which the IC50 in assay [2] (Homo sapiens, KMS-12-BM, 96 h) was over 10000 nM; in assay [1] it was 3.8 nM; in assay [3] (Homo sapiens, JJN-3, 96 h) it was about 144 nM.
On to `COc1ncncc1Nc1nccc(-c2cc(C#N)c3c(c2)C(C)(CO)CN3)n1` (centres unmarked) [Compound 130], for which the IC50 is over 10000 nM in assay [2] (Homo sapiens, KMS-12-BM, 96 h); 4.6 nM in assay [1]; 468 nM in assay [3] (Homo sapiens, JJN-3, 96 h).
Consider `Cc1nc(C)c(Cl)c(Nc2nccc(-c3cc(C#N)c4c(c3)[C@@](C)(CO)CN4)n2)n1` [Compound 132], for which the IC50 in assay [2] (Homo sapiens, KMS-12-BM, 96 h) was over 10000 nM; in assay [1] it was 12.9 nM; in assay [3] (Homo sapiens, JJN-3, 96 h), 3310 nM.
For the compound `Cc1nc(Nc2nccc(-c3cc(C#N)c4c(c3)[C@@](C)(CO)CN4)n2)cc(N2CCN(CCO)CC2)n1` [Compound 133], the IC50 in assay [2] (Homo sapiens, KMS-12-BM, 96 h) is over 10000 nM; in assay [1] it was 22.9 nM; in assay [3] (Homo sapiens, JJN-3, 96 h), about 1950 nM.
On to `Cc1nc(Nc2nccc(-c3cc(C#N)c4c(c3)[C@@](C)(CO)CN4)n2)cc(N2CCOCC2)n1` [Compound 134], for which the IC50 was over 10000 nM in assay [2] (Homo sapiens, KMS-12-BM, 96 h); 38.9 nM in assay [1]; over 10000 nM in assay [3] (Homo sapiens, JJN-3, 96 h).
In the case of `COCCOc1nc(P(C)(C)=O)ncc1Nc1nccc(-c2cc(C#N)c3c(c2)[C@@](C)(CO)CN3)n1` [Compound 139], the IC50 in assay [2] (Homo sapiens, KMS-12-BM, 96 h) is over 10000 nM; in assay [1], 17.8 nM; in assay [3] (Homo sapiens, JJN-3, 96 h) it was about 10000 nM.
For `Cc1ncc(Nc2nccc(-c3cc(C#N)c4c(c3)[C@@](C)(CO)CN4)n2)c(OCC2(C)COC2)n1` [Compound 142], the IC50 in assay [2] (Homo sapiens, KMS-12-BM, 96 h) was over 10000 nM; in assay [1], 15.1 nM; in assay [3] (Homo sapiens, JJN-3, 96 h), 6310 nM.
For the compound `COc1nc(C2=CCOCC2)ncc1Nc1nccc(-c2cc(C#N)c3c(c2)[C@@](C)(CO)CN3)n1` [Compound 143], the IC50 in assay [2] (Homo sapiens, KMS-12-BM, 96 h) is over 10000 nM; in assay [1] it was 7.8 nM; in assay [3] (Homo sapiens, JJN-3, 96 h), 347 nM.
For `Cc1ncc(Nc2nccc(-c3cc(C#N)c4c(c3)[C@@](C)(CO)CN4)n2)c(OCC(=O)N(C)C)n1` [Compound 144], the IC50 is over 10000 nM in assay [2] (Homo sapiens, KMS-12-BM, 96 h); 24 nM in assay [1]; over 10000 nM in assay [3] (Homo sapiens, JJN-3, 96 h).
For the compound `Cc1cc(Nc2nccc(-c3cc(C#N)c4c(c3)[C@@](C)(CO)CN4)n2)c(C)nc1OC1CCN(C2CC2)CC1` [Compound 176], the IC50 in assay [1] was 4.8 nM.
